Measurements: article PMC7594079, “Insights into the Function and Evolution of Taste 1 Receptor Gene Family in the Carnivore Fish Gilthead Seabream (Sparus aurata)” (International Journal of Molecular Sciences, 2020)

Each compound was assayed against T1, saT1R1/R3 (Sparus aurata, UniProt A0A671TNH8+A0A671VZB3) (assay: saT1R1/R3 heterodimer transiently transfected in stable pGL3-NFAT-luc-HEK293 (Cl.3) cells, luciferase reporter). Conditions: as molarity; decimal comma.
T1 sequence (A0A671TNH8 23-847): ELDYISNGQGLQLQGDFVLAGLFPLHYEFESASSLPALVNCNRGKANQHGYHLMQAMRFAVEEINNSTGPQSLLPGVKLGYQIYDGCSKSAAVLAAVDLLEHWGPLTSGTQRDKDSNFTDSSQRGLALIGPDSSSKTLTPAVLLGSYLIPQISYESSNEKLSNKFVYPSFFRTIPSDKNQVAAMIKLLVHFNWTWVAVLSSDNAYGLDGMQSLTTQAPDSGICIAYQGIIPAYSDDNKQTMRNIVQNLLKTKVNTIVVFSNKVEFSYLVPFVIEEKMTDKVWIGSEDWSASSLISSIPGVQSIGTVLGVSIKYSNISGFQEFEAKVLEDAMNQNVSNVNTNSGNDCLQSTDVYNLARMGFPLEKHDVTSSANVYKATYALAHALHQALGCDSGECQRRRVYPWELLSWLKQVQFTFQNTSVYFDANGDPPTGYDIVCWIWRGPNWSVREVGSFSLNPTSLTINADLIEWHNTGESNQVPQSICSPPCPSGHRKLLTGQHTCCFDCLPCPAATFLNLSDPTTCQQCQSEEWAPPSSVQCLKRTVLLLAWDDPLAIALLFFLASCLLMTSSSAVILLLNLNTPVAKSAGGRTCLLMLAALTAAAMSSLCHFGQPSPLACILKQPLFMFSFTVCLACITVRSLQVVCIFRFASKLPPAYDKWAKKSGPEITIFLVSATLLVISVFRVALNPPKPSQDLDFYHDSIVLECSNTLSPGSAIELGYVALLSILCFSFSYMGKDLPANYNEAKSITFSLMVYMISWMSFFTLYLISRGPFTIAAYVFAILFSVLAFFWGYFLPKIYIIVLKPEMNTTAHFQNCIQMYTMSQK
T1 sequence (A0A671VZB3 24-860): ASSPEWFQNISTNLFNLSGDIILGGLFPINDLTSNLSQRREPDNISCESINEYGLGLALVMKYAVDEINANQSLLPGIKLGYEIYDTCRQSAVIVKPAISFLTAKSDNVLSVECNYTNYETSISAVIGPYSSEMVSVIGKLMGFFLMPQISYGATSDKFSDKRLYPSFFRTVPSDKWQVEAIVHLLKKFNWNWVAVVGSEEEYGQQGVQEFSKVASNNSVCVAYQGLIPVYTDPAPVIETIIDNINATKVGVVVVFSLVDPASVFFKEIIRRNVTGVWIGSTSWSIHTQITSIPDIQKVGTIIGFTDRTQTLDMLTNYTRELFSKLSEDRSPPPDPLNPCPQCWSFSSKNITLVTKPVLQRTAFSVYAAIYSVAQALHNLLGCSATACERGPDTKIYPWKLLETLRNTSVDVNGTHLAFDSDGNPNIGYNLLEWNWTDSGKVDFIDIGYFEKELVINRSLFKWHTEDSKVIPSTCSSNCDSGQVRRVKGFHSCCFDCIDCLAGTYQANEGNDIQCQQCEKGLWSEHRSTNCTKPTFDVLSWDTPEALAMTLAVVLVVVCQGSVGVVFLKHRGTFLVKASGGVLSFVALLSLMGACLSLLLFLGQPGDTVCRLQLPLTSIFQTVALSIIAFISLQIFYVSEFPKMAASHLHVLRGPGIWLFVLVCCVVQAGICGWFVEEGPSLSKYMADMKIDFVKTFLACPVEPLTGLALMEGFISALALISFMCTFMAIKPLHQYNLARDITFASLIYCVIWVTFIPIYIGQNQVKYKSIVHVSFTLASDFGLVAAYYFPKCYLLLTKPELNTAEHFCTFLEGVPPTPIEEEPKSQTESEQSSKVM
Format: cell-based
Source text: Figure 6 Amino acid Log-dose response curves of activation in heterologous co-transfected (Cl.3) cells with saT1R1/3 (green dots), saT1R2a/3 (red squares) and saT1R2b/3 (black triangles) heterodimers. Evaluation of L-AA responses was based on the RLU mean ± SEM of four independent determinations normalized to the mean response of the same transfections stimulated with reduced assay medium (Basal Medium Eagle w/o L-glutamate (BME) + 1% FBS), and expressed as the percentage relative to basal levels (BL).
HEK293 cells were cultured in standard medium DMEM (Gibco, Thermo Fisher, Saint Louis, MO, USA) containing 10% FBS, penicillin (100 U/mL) and streptomycin ([…]) at 37 °C, with a humidified atmosphere at 5% CO2. pGL3-NFAT-luc-HEK293 stable clones were generated by co-transfections of pGL3-NFAT-luc and tgCMV/HyTK plasmids (50:1), the latter harboring the hygromycin phosphotransferase gene, using Lipofectamine LTX according to supplier’s protocols (Thermo Fisher, Saint Louis, MO, USA). Initially, HEK293 cells were selected using DMEM containing 400 μg/mL hygromycin B (Sigma, Darmstadt, Germany) in 24-well plates for two weeks; 24 colonies were further grown out in 96-well plates under reduced hygromycin selection (200 µg/mL) for three weeks. Potentially resistant NFAT-luc-HEK293 clones (n = 22) were validated after incubation in assay medium (DMEM + 1% FBS) containing PMA or Ionomycin (Sigma, Darmstadt, Germany) for 18 h (triplicates, 50,000 cells/well). Luciferase activity was quantified with ONE-Glo™ EX Reagent Kit (Promega, Madison, WI, USA) using a 96-microplate TECAN reader (Trading AG, Switzerland).
saT1Rs (saT1R1, saT1R2a, saT1R2b saT1R3) and saGαi1-2 genes were RT-PCR amplified using 5’ and 3’ flanking primers carrying HindIII and XhoI restriction sites, respectively. Gel-purified fragments were cloned into pGEM-T Easy vectors, re-sequenced, digested and subcloned into pcDNA™3 (Invitrogen, Carlsbad, CA, USA). Effective saT1R cloning into pcDNA™3 was further verified by HindIII/XhoI digestion. Transient co-transfections were done in 6-well plates (confluence ~70–80%) using 100 μL of reduced serum medium (Opti-MEM, Gibco, Thermo Fisher, Saint Louis, MO, USA) containing 150 ng of each selected pcDNA™3 construct, 1:10 charge ratio of Enhanced Green Fluorescent expressing construct (EGFP; positive control), and pBluescript II SK (+) vector DNA (Addgene, Watertown, MA, USA) up to 1 µg of totally transfected DNA. Following 24 h incubation, cells were washed with fresh standard medium and plated in polylysine treated plates for additional 24 h. Cells were then stimulated with L-AAs and sugar compounds for 18 h in a reduced assay medium (BME w/o L-glutamate; Gibco, Thermo Fisher, Saint Louis, MO, USA) + 1% FBS), to prevent unspecific Ca^2+/NFAT signaling activation and potential saT1R desensitization. All L-AAs and sugars used for in vitro experiments were obtained from Merck KGaA (Darmstadt, Germany).

Row | Structure (SMILES) | T1R1/R3 [MSD] maximum stimulation dose
1 | C[C@H](N)C(=O)O [Ala, Alanine] | 1,00 × 10^-1 M
2 | N=C(N)NCCC[C@H](N)C(=O)O [Arg, Arginine] | 1,00 × 10^-5 M
3 | NC(=O)C[C@H](N)C(=O)O [Asn, Asparagine] | 1,00 × 10^-1 M
4 | N[C@@H](CC(=O)O)C(=O)O [Asp, Aspartic acid] | 1,00 × 10^-5 M
5 | N[C@@H](CS)C(=O)O [Cys, Cysteine] | 1,00 × 10^-4 M
6 | NC(=O)CC[C@H](N)C(=O)O [Gln, Glutamine] | 1,00 × 10^-1 M
7 | N[C@@H](CCC(=O)O)C(=O)O [Glu, Glutamic acid] | 1,00 × 10^-2 M
8 | NCC(=O)O [Gly, Glycine] | 1,00 × 10^-1 M
9 | N[C@@H](Cc1c[nH]cn1)C(=O)O [His, Histidine] | 1,00 × 10^-5 M
10 | CC[C@H](C)[C@H](N)C(=O)O [Ile, Isoleucine] | 1,00 × 10^-1 M
11 | CC(C)C[C@H](N)C(=O)O [Leu, Leucine] | 1,00 × 10^-1 M
12 | NCCCC[C@H](N)C(=O)O [Lys, Lysine] | 1,00 × 10^-3 M
13 | CSCC[C@H](N)C(=O)O [Met, Methionine] | 1,00 × 10^-1 M
14 | N[C@@H](Cc1ccccc1)C(=O)O [Phe, Phenylalanine] | 1,00 × 10^-2 M
15 | O=C(O)[C@@H]1CCCN1 [Pro, Proline] | 1,00 × 10^-1 M
16 | N[C@@H](CO)C(=O)O [Ser, Serine] | 1,00 × 10^-1 M
17 | C[C@@H](O)[C@H](N)C(=O)O [Thr, Threonine] | 1,00 × 10^-1 M
18 | N[C@@H](Cc1c[nH]c2ccccc12)C(=O)O [Trp, Tryptophan] | 1,00 × 10^-3 M
19 | N[C@@H](Cc1ccc(O)cc1)C(=O)O [Tyr, Tyrosine] | 1,00 × 10^-3 M
20 | CC(C)[C@H](N)C(=O)O [Val, Valine] | 1,00 × 10^-1 M

The compounds below were run on pGL3-NFAT-luc-HEK293 (Cl.3) cells (assay: not given). Conditions: not given.
Format: cell-based
Source text: BL (Basal Levels) = 100% RLU. Different lowercase letters (a,b,c) on top of bars indicate significant differences (p < 0.05) between concentrations, assessed by one-way ANOVA followed by Tukey’s Multiple Comparison Test (GraphPad Prism version 5.00).

Row | Structure (SMILES) | doses toxic for the cells and/or inhibiting their stimulation
21 | OC[C@H]1OC(O)[C@H](O)[C@@H](O)[C@@H]1O (stereo partly drawn) [D-Glucose] | 300 to 500 mM
